Laboratory results: US10988481B2, “Potent and selective mu opioid receptor modulators” (VIRGINIA COMMONWEALTH UNIVERSITY, priority 2016, dated 2021)
Like-named read-outs stand apart in the source and are kept apart here.

Key:
DOR [1] = molecular target: T1, DOR (Homo sapiens (Human), UniProt P41143); settings: read-out: Ki (nM) ± SEM δ; values obtained from previous experiments; cited from earlier work
MOR [2] = molecular target: MOR (Homo sapiens (Human), UniProt P35372); settings: background statement; cited from earlier work
DOR [3] = molecular target: T1, DOR; experiment: Competition binding assay at DOR ([3H]DPN, CHO cell membranes)
Method: (§1) Chinese hamster ovary (CHO) cells expressing MOR, KOR and DOR were cultured for use in this assay. The culture media used for MOR CHO cells contained 500 mL DMEM/F12 media, 10% FBS, 1% penicillin/streptomycin, and 2.75 mL G418. The DOR and KOR CHO cells were cultured in the same media except that 5% FBS was used instead of 10%. The cells are allowed to grow until they are 80-95% confluent after which they are split. The cells are continuously cultured and split until there were sufficient cells for the studies.
(§2) Once the cells reached confluence, cells were harvested, centrifuged at 1000×g for 10 minutes, and suspended in membrane buffer (50 mM Tris, 3 mM MgCl2, and 1 mM EGTA, pH 7.4). The cells were then homogenized, centrifuged at 50000×g for 10 minutes, and re-homogenized in membrane buffer. A Bradford assay was conducted to determine membrane protein concentrations, and membrane protein preps (3 μg/aliquot) were stored at −80° C.
(§3) The competition binding assay was conducted to determine the affinity and selectivity of the synthesized compounds to MOR over KOR and DOR. The Kd and Bmax values for [^3H]NLX at MOR and [^3H]DPN at KOR had been determined previously. […] [^3H]NLX was used to label MOR whilst [^3H]DPN was used to label both DOR and KOR. The potency of the new compounds in displacing the specific binding of the radioligand was determined by linear regression analysis of Hill plots. […] The IC50 values were determined and converted to Ki values using the Cheng—Prusoff equation (Rosenblum, A. et al. Exp Clin Psychopharmacol. 2008, 16 (5), 405-416).

Swiss Webster mice [4] = experiment: Warm-water tail immersion assay, antinociceptive (agonist) effect; assay type: in vivo; settings: 10 mg/kg s.c., tail flick 20 min after injection, 56 °C
Method: (§4) FIG. 1A-D. Warm-water tail immersion assay in mice (n=5) at 56±0.1° C. All tested compounds were administered subcutaneously (s.c.). […] Compounds (10 mg/kg) were injected at Time 0. Twenty minutes after injection, tail flick was assessed with hot water. […] Tested compounds (10 mg/kg) were injected at Time 0. Five minutes later, morphine (10 mg/kg) was administered. Twenty minutes after morphine injection, tail flick was tested using hot water.
(§5) For the in vivo studies, male Swiss Webster mice were used for both the warm-water immersion and opioid withdrawal assays. The mice weighed 23-35 g and were housed five to a cage in animal care quarters maintained at 22° C. on a 12 hour light-dark cycle with food and water available ad libitum. The mice were transferred to the test room and the tests were then conducted 18 hours later. Protocols and procedures were approved by the Institutional Animal Care and Use Committee at Virginia Commonwealth University Medical Center and complied with the recommendations of the International Association for the Study of Pain.
Each indole analogue of naltrexamine was tested for its ability to produce antinociception and/or to antagonize the antinociceptive effects of morphine in mice using the warm-water tail immersion assay described by Coderre and Rollman. The a water bath temperature was maintained at 56±0.1° C. The baseline latency (control) was determined before injecting the compounds into the mice. […] To test for agonism, the tail immersion was conducted 20 min (time that morphine effect starts to peak) after injecting the indole analogues of 6α/β-naltrexamine. To prevent tissue damage, a 10 s maximum cut off time was imposed. Antinociceptive response was calculated as the percentage maximum possible effect (% MPE), where % MPE=[(test−control)/(10−control)]×100. […] The tail immersion test was conducted 20 min after giving morphine. % MPE was calculated for each mouse using at least five mice per drug. AD50 values were calculated using the least-squares linear regression analysis followed by calculation of 95% confidence interval by Bliss method. […]

MOR [5] = molecular target: MOR (Mus musculus, UniProt P42866); assay type: biochemical; settings: relative to 3 μM DAMGO at MOR
Method: The [^35S]GTPγS functional assay was used to determine whether the synthesized compounds are agonists. The agonist's activity of the compounds was measured relative to 3 μM DAMGO at MOR. In this assay, upon receptor activation due to agonist binding, [^35S]GTPγS binds to the Gα subunit. Thus, [^35S]GTPγS replaces endogenous GTP and since the γ-thiophosphate bond is resistant to hydrolysis by GTPase, [^35S]GTPγS labelled Gα subunits accumulate and can be quantified by measuring the amount of incorporated [^35S].
The Bradford assay was then conducted to determine the concentration of the membrane protein using BSA as the standard. Suitable dilutions of membrane protein, [^35S]GTPγS), cold GTPγS, DAMGO and GDP were made in TME. The desired amount of the protein per tube was 10 μg. All the test-tubes were vortexed and incubated in the shaking water bath at 30° C. for 90 minutes, after which bound radioligand was filtered and rinsed three times with cold Tris buffer. The filtered bound radioligand was then transferred into scintillation tubes with 4 mL of scintillation fluid and radioligand was quantified. However, counting was delayed for 9 hrs to allow the radioactivity to enter the solution. Percent DAMGO stimulation was defined as (net stimulated binding of test compound/net stimulated binding of DAMGO)×100%. The normalized data were subjected to nonlinear regression analysis to determine EC50 and Emax values using Prism 6.0 software (GraphPad Software, San Diego, Calif.). The assay was performed in triplicate and repeated at least three times.

Swiss Webster mice [6] = experiment: Warm-water tail immersion assay, blockage of the antinociceptive effect of morphine; settings: for Blockage of morphine-mediated antinociception: 10 mg/kg s.c. 5 min before morphine 10 mg/kg, tested 20 min after morphine
Method: as §4, §5
Each indole analogue of naltrexamine was tested for its ability to produce antinociception and/or to antagonize the antinociceptive effects of morphine in mice using the warm-water tail immersion assay described by Coderre and Rollman. The a water bath temperature was maintained at 56±0.1° C. The baseline latency (control) was determined before injecting the compounds into the mice. […] To test for agonism, the tail immersion was conducted 20 min (time that morphine effect starts to peak) after injecting the indole analogues of 6α/β-naltrexamine. To prevent tissue damage, a 10 s maximum cut off time was imposed. Antinociceptive response was calculated as the percentage maximum possible effect (% MPE), where % MPE=[(test−control)/(10−control)]×100. In the antagonism study, the 6α/β-naltrexamine derivatives were given 5 min before morphine. The tail immersion test was conducted 20 min after giving morphine. % MPE was calculated for each mouse using at least five mice per drug. AD50 values were calculated using the least-squares linear regression analysis followed by calculation of 95% confidence interval by Bliss method. A higher % MPE indicates a stronger antinociception effect by the ligand.

KOR = KOR (Homo sapiens (Human), UniProt P41145); experiment: Competition binding assay at KOR ([3H]DPN, CHO cell membranes)
Method: as §1, §2, §3

morphine-pelleted mice = experiment: Opioid withdrawal assay in chronic morphine-exposed (pelleted) mice
Method: as §5
A 75 mg morphine pellet was implanted in to the base of the neck of the mice and the mice were then given time to recover in their home cages before the test was conducted. The mice were then allowed for 30 min habituation to an open-topped, square, clear Plexiglas observation chamber (26×26×26 cm^3) with lines partitioning the bottom into quadrants before they were given antagonist. All drugs and test compounds were administered subcutaneously (s.c.). […] Withdrawal commenced within 3 min after antagonist administration. Escape jumps, paw tremors and wet dog shakes were quantified by counting their occurrences over 20 min for each mouse using five mice per drug. The data is given as the mean±SEM. One-way ANOVA followed by the post hoc Dunnett test were performed to assess significance using the Prism 6.0 software.

[7] = [3H]DPN, DOR CHO membranes, read-out: Ki (nM) ± SEM δ
[8] = [3H]DPN, KOR CHO membranes, read-out: Ki (nM) ± SEM κ
[9] = 50 mg/kg s.c., morphine-pelleted mice

T1 sequence (P41143 whole entry, looked up): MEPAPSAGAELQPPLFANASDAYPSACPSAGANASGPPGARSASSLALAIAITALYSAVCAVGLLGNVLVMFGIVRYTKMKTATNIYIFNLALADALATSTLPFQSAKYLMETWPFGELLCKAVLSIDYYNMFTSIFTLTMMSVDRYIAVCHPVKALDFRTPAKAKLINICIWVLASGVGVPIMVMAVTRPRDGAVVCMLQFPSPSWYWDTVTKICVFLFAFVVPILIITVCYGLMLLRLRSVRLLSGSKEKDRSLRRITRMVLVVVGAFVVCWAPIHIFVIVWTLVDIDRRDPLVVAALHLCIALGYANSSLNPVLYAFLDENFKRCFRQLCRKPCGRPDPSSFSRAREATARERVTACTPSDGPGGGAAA
Sequence of MOR (Mus musculus, UniProt P42866) (P42866 whole entry, looked up): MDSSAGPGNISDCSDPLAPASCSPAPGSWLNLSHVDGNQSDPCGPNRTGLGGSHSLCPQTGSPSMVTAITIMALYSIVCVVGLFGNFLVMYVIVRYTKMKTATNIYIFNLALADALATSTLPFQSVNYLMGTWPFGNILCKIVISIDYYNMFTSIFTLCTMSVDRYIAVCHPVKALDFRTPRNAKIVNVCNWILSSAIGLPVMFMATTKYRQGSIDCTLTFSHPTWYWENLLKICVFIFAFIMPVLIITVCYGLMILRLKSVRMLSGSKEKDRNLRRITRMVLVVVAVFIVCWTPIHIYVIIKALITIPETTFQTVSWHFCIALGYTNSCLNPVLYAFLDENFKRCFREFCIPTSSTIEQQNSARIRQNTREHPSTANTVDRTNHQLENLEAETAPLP
Sequence of MOR (Homo sapiens (Human), UniProt P35372) (P35372 whole entry): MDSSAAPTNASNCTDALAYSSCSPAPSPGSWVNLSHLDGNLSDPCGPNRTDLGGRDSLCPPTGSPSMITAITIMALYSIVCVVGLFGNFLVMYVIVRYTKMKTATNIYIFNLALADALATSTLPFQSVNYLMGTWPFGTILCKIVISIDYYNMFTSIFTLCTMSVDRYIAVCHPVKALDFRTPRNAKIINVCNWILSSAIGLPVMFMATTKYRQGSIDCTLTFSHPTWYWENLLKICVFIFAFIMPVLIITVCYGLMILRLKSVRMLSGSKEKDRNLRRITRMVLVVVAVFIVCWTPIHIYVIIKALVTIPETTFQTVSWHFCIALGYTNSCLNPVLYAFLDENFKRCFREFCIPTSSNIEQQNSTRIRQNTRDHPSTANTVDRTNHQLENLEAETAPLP

SMILES | Ki (DOR [3]) | Antinociceptive effect (agonism) in warm-water immersion assay (Swiss Webster mice [4]) | Emax(% DAMGO) ± SEM (MOR [5]) | Blockage of morphine-mediated antinociception (Swiss Webster mice [6]) | Ki (KOR) | Ki (DOR [3]; [7]) | Ki (KOR; [8]) | also measured
Cl.O=C(N[C@H]1CC[C@@]2(O)[C@H]3Cc4ccc(O)c5c4[C@@]2(CCN3CC2CC2)[C@H]1O5)c1cc2ccccc2cn1 [NAQ, 17-Cyclopropylmethyl-3,14β-Dihydroxy-4,5α-Epoxy-6α-(Isoquinoline-3-Carboxamido)morphinan] | – | – | – | – | – | – | – | Ki (DOR [1]): 162 ± 15 nM
COc1cccc2c1[C@]13CCN(CC4CC4)[C@H](C2)[C@]1(OC)CCC(=O)C3 [Cyprodime] | – | – | – | – | – | – | – | Selectivity DOR/MOR (MOR over DOR) (MOR [2]): ≈ 39 fold; Selectivity KOR/MOR (MOR [2]): ≈ 10
Cl.O=C(N[C@@H]1CC[C@@]2(O)[C@H]3Cc4ccc(O)c5c4[C@@]2(CCN3CC2CC2)[C@H]1O5)c1cccc2cc[nH]c12 [Compound 15, 17-Cyclopropylmethyl-3,14β-dihydroxy-4,5α-epoxy-6β-(indole-7-carboxamido)morphinan] | 30.4 ± 9.49 nM | partial opioid agonists | 32.0 ± 4.6 % DAMGO | effectively blocked morphine-mediated antinociception | 0.52 ± 0.094 nM | – | – | –
Cl.O=C(Cc1c[nH]c2ccccc12)N[C@@H]1CC[C@@]2(O)[C@H]3Cc4ccc(O)c5c4[C@@]2(CCN3CC2CC2)[C@H]1O5 [Compound 16, 17-Cyclopropylmethyl-3,14β-dihydroxy-4,5α-epoxy-6β-[2-(indol-3-yl)acetamido)morphinan] | – | partial opioid agonists | 50.17 ± 7.75 % DAMGO | – | – | 37 ± 1.21 nM | 0.947 ± 0.114 nM | –
Cl.O=C(N[C@@H]1CC[C@@]2(O)[C@H]3Cc4ccc(O)c5c4[C@@]2(CCN3CC2CC2)[C@H]1O5)c1cc2ccccc2[nH]1 [Compound 10, 17-Cyclopropylmethyl-3,14β-dihydroxy-4,5α-epoxy-6β-(indole-2-carboxamido)morphinan] | 1.54 ± 0.473 nM | opioid agonist | – | – | 0.178 ± 0.002 nM | – | – | –
Cl.O=C(N[C@H]1CC[C@@]2(O)[C@H]3Cc4ccc(O)c5c4[C@@]2(CCN3CC2CC2)[C@H]1O5)c1cccc2cc[nH]c12 [Compound 6, 17-Cyclopropylmethyl-3,14β-dihydroxy-4,5α-epoxy-6α-(indole-7-carboxamido)morphinan] | – | – | 20.95 ± 4.43 % DAMGO | effectively blocked morphine-mediated antinociception | – | 10.9 ± 2.94 nM | 1.69 ± 0.35 nM | AD50 (95% CL), opioid antagonist effect (Swiss Webster mice [6]; dose-dependent study against morphine, s.c.): 2.39 (0.46-12.47) mg/kg; Escape jumps compared with naltrexone 1 mg/kg (morphine-pelleted mice; 1 mg/kg s.c., morphine-pelleted mice): significantly less escape jumps than naltrexone; Diarrhea (morphine-pelleted mice; 1 mg/kg, morphine pelleted mice (not in placebo pelleted mice)): produced diarrhea; Paw tremors compared with naltrexone 1 mg/kg (morphine-pelleted mice; [9]): significantly less paw tremors than naltrexone; Wet-dog shakes compared with naltrexone 1 mg/kg (morphine-pelleted mice; [9]): significantly less wet-dog shakes than naltrexone; Escape jumps compared with naltrexone 1 mg/kg (morphine-pelleted mice; 50 mg/kg s.c., morphine-pelleted mice, not significantly different): more escape jumps; Withdrawal symptoms in placebo-pelleted mice (morphine-pelleted mice; 50 mg/kg s.c., placebo-pelleted mice): did not induce any significant withdrawal symptoms
